Measured values reported in patent US20080292617A1, “ANTIBODY AGAINST A PEPTIDE DERIVED FROM HUMAN MUTANT LAMIN A PROTEIN AND USES THEREOF” (THE TRUSTEES OF COLUMBIA UNIVERSITY IN THE CITY OF NEW YORK, priority 2005, published 2008).

Key:
[1] = test system: HGPS fibroblast cultures; experiment: Scoring of abnormally shaped nuclei in fibroblast cultures treated with farnesyltransferase inhibitor; assay type: cell-based, human; details: 20 μM FTI-277 daily, after 48 h treatment, HGPS fibroblasts PPDs 35-38; decreased from 31%
Text: Indirect immunofluorescence and Western blot: Primary cultures of dermal fibroblasts were processed for indirect immunofluorescence as described previously (Paradisi et al, 2005). Rabbit antibodies directed against A-type and B-type lamins were described previously (Chaudhary et al, 1993; Cance et al, 1992). Goat anti-lamin B1 M-20 and anti-prelamin A C-20 (Santa Cruz), monoclonal antibodies anti-emerin 4G5 (Novocastra), anti-nucleoporin Nup153 clone 414 (Covance), anti-lamin A Jo14 (Serotec), and anti-Ki-67 (BD Bioscience) were purchased. Secondary antibodies were affinity purified Alexa Fluor 488 goat or donkey IgG antibodies (Molecular Probes) and Cy3-conjugated IgG antibodies (Jackson ImmunoResearch laboratories). All samples were counterstained with DAPI (Sigma-Aldrich). […]
Quantification: The percentages of ki-67 positive cells, of misshapen or blebbing nuclei, and senescence β-gal positive cells were determined by direct count of 300 cells per coverslip in triplicate, and from three independent experiments. […]
To determine the role of farnesylation in HGPS nuclear abnormalities, control and HGPS fibroblast cultures (PPDs 35-38) were treated daily with 20 μM farnesyltransferase inhibitor FTI-277 (Adjei et al, 2000). […] Progerin was also detected in nuclear foci similarly to wild-type prelamin A (FIG. 6B).

[2] = test system: progerin (LMNA G608G) in HGPS fibroblasts; experiment: Immunofluorescence localization of progerin after FTI-277 treatment; assay type: cell-based, human
Text: Indirect immunofluorescence and Western blot: Primary cultures of dermal fibroblasts were processed for indirect immunofluorescence as described previously (Paradisi et al, 2005). Rabbit antibodies directed against A-type and B-type lamins were described previously (Chaudhary et al, 1993; Cance et al, 1992). Goat anti-lamin B1 M-20 and anti-prelamin A C-20 (Santa Cruz), monoclonal antibodies anti-emerin 4G5 (Novocastra), anti-nucleoporin Nup153 clone 414 (Covance), anti-lamin A Jo14 (Serotec), and anti-Ki-67 (BD Bioscience) were purchased. Secondary antibodies were affinity purified Alexa Fluor 488 goat or donkey IgG antibodies (Molecular Probes) and Cy3-conjugated IgG antibodies (Jackson ImmunoResearch laboratories). All samples were counterstained with DAPI (Sigma-Aldrich). When cells were treated daily for 3 days with farnesyltransferase inhibitor FTI-277 (Calbiochem), the culture medium was supplemented with 20 μM FTI-277 or DMSO prior to immunofluorescence analysis as described previously (Adjei et al, 2000). Images were processed using Adobe Photoshop. For Western blot analysis, total cellular protein extracts were isolated from dermal fibroblast cultures at different population doublings (25 to 55) and processed as described previously (Paradisi et al, 2005).
To determine the role of farnesylation in HGPS nuclear abnormalities, control and HGPS fibroblast cultures (PPDs 35-38) were treated daily with 20 μM farnesyltransferase inhibitor FTI-277 (Adjei et al, 2000). After 48 h treatment, the percentage of HGPS nuclei with abnormal shapes decreased from 31% to 8% (FIG. 6A). The intranuclear repartition of prelamin A and the localization of LMNA G608G differed greatly between treated and un-treated cells; prelamin A was not detectable in control or HGPS cells (FIG. 6B). […] Progerin was also detected in nuclear foci similarly to wild-type prelamin A (FIG. 6B).

percentage of HGPS nuclei with abnormal shapes [1]: 8%
SMILES: COC(=O)[C@H](CCSC)NC(=O)c1ccc(NC[C@@H](N)CS)cc1-c1ccccc1 [FTI-277]
progerin localization (anti-LMNA G608G staining) ([2]; 20 μM FTI-277, 76 h after treatment): progerin was totally depleted from the NE in most nuclei
progerin localization (anti-LMNA G608G staining) ([2]; 20 μM FTI-277, after 24 h treatment): progerin was still incorporated into the nuclear lamina
progerin localization (anti-LMNA G608G staining) ([2]; 20 μM FTI-277, after 48 h treatment): progerin was progressively depleted from the NE and lamina
